The term solubility (kinetic) denotes the concentration staying in solution when a stock, usually in DMSO, is diluted into the medium.

This is an account of results in PubChem BioAssay AID1996.

≈ marks a conversion by molar mass, not a printed value.

For the series the following is noted: buffer; pH 7.4; 200.0 µM.
For `CC(=O)Nc1ccc(OCCOc2ccccc2C(C)=O)cc1`, the solubility (kinetic) is greater than 47 µg/mL.
In the case of `CC(=O)N/C(=C\c1ccccc1)C(=O)OC/C=C/c1ccccc1` it was 47.3 µg/mL (≈ 147 µM); in that of `O=C(CN1CCN(c2ccc(F)cc2)CC1)c1ccc(O)cc1O`, 12.7 µg/mL (≈ 38.4 µM); in that of `C(=C\c1ccccc1)/CN1CCN(Cc2ccc3c(c2)OCO3)CC1`, 43 µg/mL (≈ 128 µM).
Turning to `Cc1nc(NC(=O)CN2CCCCC2)sc1C(=O)N(C)C`, the solubility (kinetic) is greater than 46.6 µg/mL.
In the case of `Cc1cccc(C)c1NC(=O)c1cnccn1` it was 24.8 µg/mL (≈ 109 µM); in that of `O=C(Cc1ccc(Cl)cc1)Nc1cc(Cl)ccn1`, 3.5 µg/mL (≈ 12.4 µM).
Take `O=C(Nc1ccc(F)cc1)c1cc(-c2ccccc2)no1`: the kinetic solubility is less than 0.3 µg/mL.
For `CS(=O)(=O)c1ccc(C(=O)NCC2(N3CCOCC3)CCCCC2)cc1`, the kinetic solubility was greater than 57.1 µg/mL.
In the case of `Cc1ccc(C(C)C)cc1S(=O)(=O)NC1CC(C)(C)NC(C)(C)C1` it was 35.2 µg/mL (≈ 99.8 µM); in that of `Cc1noc(C)c1COc1cccc(C(=O)Nc2ccc(Br)cc2F)c1`, 9.6 µg/mL (≈ 22.9 µM).
In the case of `Cc1ccccc1/C=C\c1nc(O)c([N+](=O)[O-])c(=O)[nH]1` it was greater than 41 µg/mL; in that of `CCOC(=O)C1CCN(c2c(NCCC(C)C)c(=O)c2=O)CC1`, greater than 48.4 µg/mL; in that of `Cc1[nH]c(=O)nc(SCc2ccc(Cl)c(Cl)c2)c1C#N`, 3.4 µg/mL (≈ 10.4 µM).
In the case of `O=C(COc1ccc(Cl)cc1)NC1CC1`, the solubility (kinetic) is greater than 33.9 µg/mL.
To `COc1cc(NC(C)=O)ccc1NC(=O)c1cc2ccccc2o1` belongs less than 0.3 µg/mL; to `Cc1cc(C)c(C)c(S(=O)(=O)Nc2cccc(S(=O)(=O)Nc3ccccc3C(=O)O)c2)c1C`, 72.1 µg/mL (≈ 148 µM).
The compound `CN(C(=O)CSc1cccc[n+]1[O-])C1CCCCC1` gave a solubility (kinetic) greater than 42.1 µg/mL.
In the case of `C=CCc1ccccc1Oc1cc(F)nc(N)n1` it was 27.7 µg/mL (≈ 113 µM); in that of `COC(=O)CC(N)c1ccc(Br)cc1.Cl` (stereo not given), greater than 44.2 µg/mL.
In the case of `COc1cc2c(cc1OC)/C(=C/C(=O)c1ccc(C)cc1)NCC2` it was 24.8 µg/mL (≈ 76.7 µM).
`CCOC(=O)C1CCN(S(=O)(=O)c2ccc(NC(C)=O)c(Cl)c2)CC1` showed a solubility (kinetic) of 7.3 µg/mL (≈ 18.8 µM).
With `O=C(NCCc1c[nH]c2ccccc12)c1ccc(Cl)cc1`, the kinetic solubility is 5.2 µg/mL (≈ 17.4 µM). This solubility kinetic and that of the compound before are within 1.5-fold of each other.
To `O=C(COc1nncc2ccccc12)NCC(F)(F)F` belongs greater than 42.8 µg/mL; to `CNC(=O)CCN(Cc1ccco1)S(=O)(=O)c1ccc(OC)c(OC)c1`, 56.2 µg/mL (≈ 147 µM).
In the case of `CCOc1ccc(N2C(=O)CC(Cc3ccccc3OC)C2=O)cc1` (stereo not given) it was 4.9 µg/mL (≈ 14.4 µM); in that of `CCCC#CCN1CCN(C23CC4CC(CC(C4)C2)C3)CC1`, 42.6 µg/mL (≈ 142 µM); in that of `CC(=O)O/N=C/c1c(C)c(C=O)n2ccccc12`, greater than 36.6 µg/mL.
To `Cc1cc(-n2c(C)cc(C(=O)CN3C(=O)C(=O)N(C)C3=O)c2C)no1` belongs greater than 51.6 µg/mL; to `O=C(O)/C=C/C(=O)N1CCN(C(c2ccccc2)c2ccccc2)CC1`, greater than 52.6 µg/mL.
Take `Cc1cc(C(=O)OCC(=O)Nc2ccccc2C#N)c(C)o1`: the solubility (kinetic) stood at 8.9 µg/mL (≈ 29.8 µM).
In turn, `COc1ccc(OCCNC(=O)/C=C/c2ccccc2)cc1` had a solubility (kinetic) of 4.9 µg/mL (≈ 16.5 µM).
`CN(C)c1ccc(/C=C/C(=O)c2cccnc2)cc1` showed a kinetic solubility of 9.5 µg/mL (≈ 37.7 µM).
To `COC(=O)c1ccc(CN2C(=O)c3ccccc3C2=O)o1` belongs greater than 42.8 µg/mL; to `O=C(/C=C/c1ccc(Br)cc1)NCCCn1ccnc1`, 44.2 µg/mL (≈ 132 µM); to `COc1cccc(NC(=O)COC(=O)C2CCCCC2)c1`, greater than 43.7 µg/mL.
To `Cc1cccc(C)c1NC(=O)N1CC(C)OC(C)C1` (stereo not given) belongs greater than 39.4 µg/mL; to `CC(C)[C@H](NC(=O)NCc1ccc(F)cc1)C(=O)O`, greater than 40.2 µg/mL.
Regarding `O=C(c1ccc2ccccc2c1)N1CCCC1`, the kinetic solubility worked out at 19.7 µg/mL (≈ 87.4 µM).
In the case of `Cc1ccc(S(=O)(=O)C(C#N)=C2N(C)c3ccccc3N2C)cc1` it was 7.9 µg/mL (≈ 23.3 µM).
